Measurements published in US5736558A, “4-(6-fluoro-1,2-benzisoxazolyl)-1 piperidinyl-propoxy-chromen-4-one-one-derivatives, their preparation and their use in the treatment of psychosis, schizophrenia and anxiety” (Ferrer Internacional, S.A., priority 1995, dated 1998).
Where two headings read alike, the source gives them in different places.

Key:
[1] = molecular target: T1, 5HT2 receptors (Rattus norvegicus, UniProt P14842); assay: Specific binding to 5HT2 receptors ([3H]ketanserin, rat cortex membrane); conditions: 0.5 nM [3H]ketanserin, 30 min, 35° C., pH 7.4
T1 construct: membrane corresponding to 1 mg of rat cortex; from tissue; host or cells: rat cortex membrane
Protocol: (§1) Specific binding to D2, 5HT2 and, 5HT1a receptors was tested as follows:
The amount of receptor-bound radioactivity was retained on the membrane and determined by liquid scintillation counting.
(§2) The biochemical results expressed as IC50 in molar concentrations are presented in Table 1 comparatively to the compound of Patent ES 9400581. A higher affinity of the present compounds to the three receptors is observed.

[2] = in vivo; conditions: rat, po
[3] = molecular target: T2, D2 receptors (Rattus norvegicus, UniProt P61169); assay: Specific binding to D2 receptors ([3H]spiperone, rat striatum membrane)
T2 construct: membrane corresponding to 20 mg of rat striatum; from tissue; host or cells: rat striatum membrane
Protocol: D2 receptors: A 2-nM solution of radioactive spiperone ([^3 H]spiperone), which acts as a specific ligand, was incubated with the membrane corresponding to 20 mg of rat striatum for 20 min at 35° C. buffered at pH 7.4 with Tris.HCl. The non-specific binding was then determined by addition of a micromolar concentration of unlabelled spiperone. […] After the incubation was completed, the sample was filtered through a glass fiber filter and then washed three times with Tris.HCl buffer. The amount of receptor-bound radioactivity was retained on the membrane and determined by liquid scintillation counting.

[4] = molecular target: T3, 5HT1a receptors (Rattus norvegicus, UniProt P19327); assay: Specific binding to 5HT1a receptors ([3H]5-OH-DPAT, rat cortex membrane)
T3 construct: membrane corresponding to 1 mg of rat cortex; from tissue; host or cells: rat cortex membrane
T3 sequence (P19327 1-422): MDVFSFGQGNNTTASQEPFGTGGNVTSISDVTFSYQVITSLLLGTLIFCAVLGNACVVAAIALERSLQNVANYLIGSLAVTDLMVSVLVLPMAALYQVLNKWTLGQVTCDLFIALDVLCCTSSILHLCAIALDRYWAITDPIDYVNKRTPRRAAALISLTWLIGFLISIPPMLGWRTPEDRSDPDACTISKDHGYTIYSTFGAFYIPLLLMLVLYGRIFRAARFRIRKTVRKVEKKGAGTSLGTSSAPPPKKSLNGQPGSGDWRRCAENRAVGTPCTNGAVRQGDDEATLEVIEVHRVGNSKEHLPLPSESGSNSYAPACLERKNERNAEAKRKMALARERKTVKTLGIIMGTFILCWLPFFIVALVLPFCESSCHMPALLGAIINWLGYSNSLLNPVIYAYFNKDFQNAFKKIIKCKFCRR
Protocol: as §1
5HT1a receptors: A 1 nM solution of radioactive […], which acts as a specific ligand, was incubated with the membrane corresponding to 1 mg of rat cortex for 20 min at 35° C. buffered at pH 7.4 with Tris.HCl.
Non-specific binding was then determined by addition of a 20 micromolar concentration of unlabelled buspirone. IC50 (inhibitory concentration 50%) was calculated from the inhibition rate of the specific binding obtained by addition of eleven different concentrations of the compounds to be tested. After the incubation was completed, the sample was filtered through a glass fiber filter and then washed three times with Tris.HCl buffer. The amount of receptor-bound radioactivity was retained on the membrane and determined by liquid scintillation counting.
as §2

[5] = system: apomorphine-induced climbing behaviour; assay: Inhibition test of apomorphine-induced climbing behaviour; format: in vivo, male Swiss mice; conditions: Mus musculus, 1 h, read-out: ID50 Climbing
Protocol: The compounds were compared in Animal Pharmacology by the inhibition test of apomorphine-induced climbing behaviour
For the practical performance of this experiment, male Swiss mice weighing 22-24 g were used. One week prior to experiment, animals were kept in our facilities at a temperature of 20°-22° C. and 12/12 h light-dark cycle, and had free access to food and water. Two hours prior to experiment, the animals were placed in individual cages without access to food.
Animals were administered orally with test drug or 0.25% agar at time 0. After 60 minutes, apomorphine was subcutaneously injected at a dose of 1 mg/kg, and after further 70 minutes the animal's behaviour was assessed. Two additional assessments were performed at 10-min intervals.
For assessment, each animal was placed on the bottom of a small upright box (11×7.5×4.5 cm). The walls of the box were made of translucent methacrylate except one of the lateral surfaces (7.5 cm wide) which was a 3-mm wire mesh. The position of the animal was scored for 2 minutes according to the following criteria: 0=four paws on the floor; 1=three paws on the floor; 2=two paws on the floor; 3=one paw on the floor; and 4=four paws holding the wire mesh. If an animal keeps several positions within the 2-min observation, the seconds elapsed in each position will be recorded. Finally, mean scoring was calculated.

[6] = 1 nM [3H]5-OH-DPAT, rat cortex, 20 min, 35° C., pH 7.4, read-out: IC50 5HT1a
[7] = oral, mice, apomorphine 1 mg/kg s.c. after 60 min

T1 sequence (P14842 whole entry): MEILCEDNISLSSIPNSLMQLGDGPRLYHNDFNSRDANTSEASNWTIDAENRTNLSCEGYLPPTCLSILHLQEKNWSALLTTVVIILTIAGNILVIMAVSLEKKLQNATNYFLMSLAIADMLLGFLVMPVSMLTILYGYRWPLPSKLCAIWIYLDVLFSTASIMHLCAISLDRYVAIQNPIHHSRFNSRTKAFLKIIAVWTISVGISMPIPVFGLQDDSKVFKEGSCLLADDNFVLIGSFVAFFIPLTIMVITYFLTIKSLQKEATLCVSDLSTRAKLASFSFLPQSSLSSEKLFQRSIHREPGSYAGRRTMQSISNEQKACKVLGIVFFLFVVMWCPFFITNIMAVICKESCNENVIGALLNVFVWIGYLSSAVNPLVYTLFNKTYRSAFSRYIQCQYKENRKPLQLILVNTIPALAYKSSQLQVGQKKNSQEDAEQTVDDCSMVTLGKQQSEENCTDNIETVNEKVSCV
T2 sequence (P61169 whole entry): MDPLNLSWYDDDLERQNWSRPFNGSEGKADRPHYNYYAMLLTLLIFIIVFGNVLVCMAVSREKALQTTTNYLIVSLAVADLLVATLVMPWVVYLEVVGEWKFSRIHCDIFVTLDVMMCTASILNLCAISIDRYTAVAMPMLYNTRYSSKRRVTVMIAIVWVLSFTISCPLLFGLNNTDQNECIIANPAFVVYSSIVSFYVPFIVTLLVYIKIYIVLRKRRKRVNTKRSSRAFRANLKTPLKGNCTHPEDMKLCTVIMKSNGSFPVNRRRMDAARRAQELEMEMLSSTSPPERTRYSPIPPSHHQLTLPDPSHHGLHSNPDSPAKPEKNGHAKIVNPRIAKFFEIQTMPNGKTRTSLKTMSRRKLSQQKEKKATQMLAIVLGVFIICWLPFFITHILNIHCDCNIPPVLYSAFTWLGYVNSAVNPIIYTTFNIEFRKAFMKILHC

Row | SMILES | IC50 [1] [µM] | ED50 [2] [mg/kg] | selectivity ratio [2] | IC50 ([3]; 2 nM [3H]spiperone, rat striatum, 20 min, 35° C., pH 7.4, read-out: IC50 D2) [µM] | IC50 [4, 6] [µM] | ED50 [5, 7] [mg/kg] | IC50 [3] [µM] | IC50 [4] [µM] | ED50 ([5]; po) [mg/kg]
1 | O=c1ccoc2cc(OCCCN3CCC(c4noc5cc(F)ccc45)CC3)ccc12 [Ex. 1, 7-[3-[4-(6-fluoro-1,2-benzisoxazole-3-yl)piperidin-1-yl]propoxy]chromen-4-one] | 0.0112 | 11.2 | 4.17 | 0.03 | 0.383 | 2.7 | – | – | –
2 | Cc1coc2cc(OCCCN3CCC(c4noc5cc(F)ccc45)CC3)ccc2c1=O [Ex. 2, 7-[3-[4-(6-fluoro-1,2-benzisoxazole-3-yl)piperidin-1-yl]propoxy]-3-methyl-chromen-4-one] | 0.0113 | 2.9 | 7.25 | – | 0.249 | 0.4 | – | – | –
3 | O=c1c(CO)coc2cc(OCCCN3CCC(c4noc5cc(F)ccc45)CC3)ccc12 [Ex. 3, 7-[3-[4-(6-fluoro-1,2-benzisoxazole-3-yl)piperidin-1-yl]propoxy]-3-(hydroxymethyl)-chromen-4-one] | 0.00471 | 3.8 | 15.2 | – | – | – | 0.0116 | 0.152 | 0.25
